Measurements as given in US6916782B1, “Gene coding for heliomicine and use thereof” (priority 1998, dated 2005).
Bridge positions count the residues as written; N and C are the ends. Ends that are not written are not given here.

How the values were obtained:
female mice = assay: Study of acute toxicity, intravenous injection
Description: Groups of 4 female mice were treated by intravenous injection of solutions of heliomicine (SEQ ID NO:2) in saline solution at doses of 1 and 10 mg/kg.

Aspergillus fumigatus = assay: Inhibition of growth in liquid medium, filamentous fungi (MIC); assay type: cell-based; conditions: range [a]-[b], 48 h, 30° C.
Description: (§1) This methodology was used to test for the antifungal molecules during the various purification steps, for the determination of the activity spectrum of the peptide and for the determination of the minimum inhibitory concentration (MIC) at which the peptide was active. The MIC was expressed as the concentration range [a]-[b] where [a] was the minimum concentration where the start of growth is observed and [b] the concentration for which no growth was observed.
(§2) The antifungal activity was detected by a test for inhibition of growth in a liquid medium. The spores of the fungi to be tested were suspended in a culture medium of the “potato-glucose” type. Preferably, 12 g of Potato Dextrose Broth medium (Difco) were used per 1 l of demineralized water. Two antibiotics were added to the culture medium: tetracycline (final concentration of 10 μg/ml) and cefotaxime (100 μg/ml). 10 μl of each fraction to be analysed are deposited in microtitre plates in the presence of 90 μl of culture medium containing the spores (at a final concentration of […]). The incubation was carried out in a humid chamber at 30° C. for 48 hours. Fungal growth was observed under a light microscope after 24 h and quantified after 48 hours by measuring the absorbance at 600 nm with the aid of a spectrophotometric microtitre plate reader. […]

Trichoderma viride = assay: as above; assay type: cell-based; conditions: range [a]-[b], 48 h, 30° C.
Description: as §1, §2

Nectria haematococca = conditions: range [a]-[b], 48 h, 30° C.
Description: (§5) The antifungal activity was detected by a test for inhibition of growth in a liquid medium. The spores of the fungi to be tested were suspended in a culture medium of the “potato-glucose” type. Preferably, 12 g of Potato Dextrose Broth medium (Difco) were used per 1 l of demineralized water. Two antibiotics were added to the culture medium: tetracycline (final concentration of 10 μg/ml) and cefotaxime (100 μg/ml). 10 μl of each fraction to be analysed are deposited in microtitre plates in the presence of 90 μl of culture medium containing the spores (at a final concentration of 104 spores/ml). The incubation was carried out in a humid chamber at 30° C. for 48 hours. Fungal growth was observed under a light microscope after 24 h and quantified after 48 hours by measuring the absorbance at 600 nm with the aid of a spectrophotometric microtitre plate reader.
(§6) The different mutated heliomicines were analyzed for their antifungal activity under the conditions described for the reference heliomicine against the following strains: Neurospora crassa, Fusarium culmorum and Nectria haematococca.

Neurospora crassa = conditions: range [a]-[b], start of growth to no growth, 48 h, 30° C.
Description: as §5, §6

Fusarium culmorum = conditions: range [a]-[b], 48 h, 30° C.
Description: as §5, §6

Candida albicans = assay: Test for detection of activity against yeasts (MIC); assay type: cell-based; conditions: range [a]-[b]
Description: as §1
(§3) The various yeast strains were incubated in a “Sabouraud” type culture medium and incubated at 30° C. for 24 h with gentle stirring. The test sample (10 μl) was deposited in microtitre plate wells to which there were added 90 μl of a dilute yeast culture whose density was adjusted to OD 600=0.001. Growth was evaluated by measuring the absorbance at 600 nm with the aid of a spectrophotometric microtitre plate reader.
(§4) - yeasts tested: Candida albicans, C. glabrata, C. tropicalis, C. krusei, C. inconspicua, Cryptococcus neoformans, Cryp. albidus, Saccharomyces cerevisiae (gift from Dr. H. Koenig, Hôpital civil, Strasbourg).

Candida tropicalis = assay: as above; assay type: cell-based; conditions: range [a]-[b]
Description: as §1, §3, §4

Cryptococcus neoformans = assay: as above; assay type: cell-based; conditions: range [a]-[b]
Description: as §1, §3, §4

Candida inconspicua = assay: as above; assay type: cell-based; conditions: range [a]-[b]
Description: as §1, §3, §4

Candida krusei = assay: as above; assay type: cell-based; conditions: range [a]-[b]
Description: as §1, §3, §4

Cryptococcus albidus = assay: as above; assay type: cell-based; conditions: range [a]-[b]
Description: as §1, §3, §4

| Molecule | Toxic effects (female mice; intravenous injection, at 5 days at 1 mg) | Mortality (female mice; intravenous injection, at 5 days at 10 mg) | MIC of heliomicine (Aspergillus fumigatus) | MIC of heliomicine (Trichoderma viride) | MIC of heliomicine (Nectria haematococca) | MIC of heliomicine (Neurospora crassa) | MIC of heliomicine (Fusarium culmorum) | Acute toxicity (female mice; intravenous injection in saline solution, doses of 1 and 10 mg/kg) | MIC of heliomicine (Candida albicans) | MIC of heliomicine (Candida tropicalis) | MIC of heliomicine (Cryptococcus neoformans) | MIC of heliomicine (Candida inconspicua) | MIC of heliomicine (Candida krusei) | MIC of heliomicine (Cryptococcus albidus) |
| --- | --- | --- | --- | --- | --- | --- | --- | --- | --- | --- | --- | --- | --- | --- |
| CC[C@H](C)[C@H](NC(=O)CN)C(=O)NCC(=O)N[C@@H](C)C(=O)N[C@H](C(=O)N[C@@H](CC(C)C)C(=O)N[C@@H](CCCCN)C(=O)N[C@H](C(=O)N[C@@H](CC(C)C)C(=O)N[C@H](C(=O)N[C@H](C(=O)NCC(=O)N[C@@H](CC(C)C)C(=O)N1CCC[C@H]1C(=O)N[C@@H](C)C(=O)N[C@@H](CC(C)C)C(=O)N[C@H](C(=O)N[C@@H](CO)C(=O)N[C@@H](Cc1c[nH]c2ccccc12)C(=O)N[C@H](C(=O)N[C@@H](CCCCN)C(=O)N[C@@H](CCCNC(=N)N)C(=O)N[C@@H](CCCCN)C(=O)N[C@@H](CCCNC(=N)N)C(=O)N[C@@H](CCC(N)=O)C(=O)N[C@@H](CCC(N)=O)C(N)=O)[C@@H](C)CC)[C@@H](C)CC)[C@@H](C)O)[C@@H](C)O)C(C)C)C(C)C [mellitin] | significant effects | 100% | – | – | – | – | – | – | – | – | – | – | – | – |
| DKLIGSCVWGAVNYTSDCNGECKRRGYKGGHCGSFANVNCWCET (disulfide 7-32, 18-40, 22-42) [heliomicine] | – | – | 6 to 12.5 µM | 1.5 to 3 µM | 0.4 to 0.8 µM | 0.1 to 0.2 µM | 0.2 to 0.4 µM | No toxicity was demonstrated | 2.5 to 5 µM | 2.5 to 5 µM | 2.5 to 5 µM | 5 to 10 µM | 10 to 20 µM | 5 to 10 µM |
